From patent US20250009914A1, “METHOD FOR SYNTHESIZING HYALURONIC ACID NANOPARTICLES, AND HYALURONIC ACID NANOPARTICLES PREPARED BY METHOD” (Kyungpook National University Industry-Academic Cooperation …, priority 2019, published 2025)

Columns and labels:
[1] = test system: HDF-neo, Human primary dermal fibroblast-neonatal; test: Fibroblast proliferation, WST-8 assay (Ez-cytox); assay type: cell-based; settings: 3 day, serum free condition, FIG. 26
Description: Next, the fibroblast proliferation effect was evaluated according to a conventional known method.
Evaluation method: WST-8 assay (Ez-cytox) and Procollagen ELISA (Takara #MK101)

[2] = test system: B16F10 mouse melanoma cell line; test: Melanin contents assay; assay type: cell-based; settings: B16F10, 48 hours; substance left 24 hours at 50° C. compared with −20° C., FIG. 23
Description: Whitening efficacy evaluation was measured by melanin contents assay and cellular tyrosinase activity assay after treating each experimental substance to a B16F10 mouse melanoma cell line and incubating the each experimental substance for 48 hours. As a control, ascorbic acid, ascorbic acid-2-glucoside (AA2G) and HAI (Oligo-HA) used in Example 2 were used. The substances used in the experiment were all left for 24 hours at −20° C. or 50° C. and then used in the experiment.

cellular tyrosinase = target: T1, cellular tyrosinase (Mus musculus, UniProt P11344); test: Cellular tyrosinase activity assay; assay type: cell-based; settings: B16F10, 48 hours; substance left 24 hours at 50° C. compared with −20° C., FIG. 23
T1 construct: Cell line: B16F10 mouse melanoma (Passage 10), 6 well plate; endogenous in cells; host or cells: B16F10 mouse melanoma cells
T1 sequence (P11344 19-533): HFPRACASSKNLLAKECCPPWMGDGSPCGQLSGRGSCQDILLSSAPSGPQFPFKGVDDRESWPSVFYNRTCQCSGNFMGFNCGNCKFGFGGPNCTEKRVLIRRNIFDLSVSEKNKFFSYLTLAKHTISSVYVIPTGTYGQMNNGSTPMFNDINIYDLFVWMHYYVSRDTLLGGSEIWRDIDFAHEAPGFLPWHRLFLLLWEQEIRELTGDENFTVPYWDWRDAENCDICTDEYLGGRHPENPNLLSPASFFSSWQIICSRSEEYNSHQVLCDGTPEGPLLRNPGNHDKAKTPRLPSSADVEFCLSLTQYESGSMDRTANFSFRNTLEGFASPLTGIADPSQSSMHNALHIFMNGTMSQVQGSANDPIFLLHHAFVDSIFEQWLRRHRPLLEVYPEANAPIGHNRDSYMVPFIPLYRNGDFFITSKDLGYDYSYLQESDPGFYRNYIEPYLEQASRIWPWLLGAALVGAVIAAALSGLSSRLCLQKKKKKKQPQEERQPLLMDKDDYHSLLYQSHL
Description: Cell line: B16F10 mouse melanoma (Passage 10), 6 well plate, 4×10^5 cells/well
Evaluation method: Cellular tyrosinase activity assay
Experimental substance treatment time: 48 hours
Experimental substance treatment concentration: See FIG. 25

[3] = Thermal stability evaluation by HPLC; assay type: physicochemical; settings: aqueous solution 100 uM, 50° C. for 48 hours

tyrosinase activity (whitening efficacy) (cellular tyrosinase) | oxidation over time [3] | Compound | fibroblast proliferation promoting efficacy [1] | melanin production (whitening efficacy) [2]
 |  | O=C1O[C@H]([C@@H](O)CO)C(O)=C1O[C@H]1O[C@H](CO)[C@@H](O)[C@H](O)[C@H]1O [AA2G, ascorbic acid-2-glucoside] | almost not shown | 
 |  | CCCCCCCCCCCCCCCC(=O)OCC(O)C1OC(=O)C(OP(=O)(O)O)=C1O (stereo not drawn) [APPS] | almost not shown | 
whitening efficacy disappeared | not oxidized over time | O=C1O[C@H]([C@@H](O)CO)C(O)=C1O [ascorbic acid] | almost not shown | whitening efficacy disappeared
